Earlier results in patent US20050201943A1, “Magnetic resonance imaging using contrast agents bioactivated by enzymatic cleavage” (Epix Medical, Inc.,. a Delaware corporation, priority 2000, published 2005).
Residues, ends and D or L forms follow the SMILES beside them. *: point of attachment. Bz = O=C(c1ccccc1)*

How the values were obtained:
TAFI = target: T1, TAFI (Homo sapiens, UniProt Q96IY4); conditions: other TAFI substrate, given for comparison
T1 sequence (Q96IY4 115-423): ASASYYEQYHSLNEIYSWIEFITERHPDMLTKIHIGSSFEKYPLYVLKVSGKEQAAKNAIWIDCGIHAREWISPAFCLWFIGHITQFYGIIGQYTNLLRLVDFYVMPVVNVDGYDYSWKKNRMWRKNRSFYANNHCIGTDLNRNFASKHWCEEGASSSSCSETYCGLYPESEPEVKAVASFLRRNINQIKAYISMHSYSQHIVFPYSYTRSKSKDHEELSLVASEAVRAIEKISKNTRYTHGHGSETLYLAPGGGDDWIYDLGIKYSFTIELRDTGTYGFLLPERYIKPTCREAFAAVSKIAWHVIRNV

[1] = target: human serum albumin (HSA) (Homo sapiens, UniProt P02768); conditions: bound to HSA versus unbound in aqueous solution
Sequence of human serum albumin (HSA) (P02768 25-609): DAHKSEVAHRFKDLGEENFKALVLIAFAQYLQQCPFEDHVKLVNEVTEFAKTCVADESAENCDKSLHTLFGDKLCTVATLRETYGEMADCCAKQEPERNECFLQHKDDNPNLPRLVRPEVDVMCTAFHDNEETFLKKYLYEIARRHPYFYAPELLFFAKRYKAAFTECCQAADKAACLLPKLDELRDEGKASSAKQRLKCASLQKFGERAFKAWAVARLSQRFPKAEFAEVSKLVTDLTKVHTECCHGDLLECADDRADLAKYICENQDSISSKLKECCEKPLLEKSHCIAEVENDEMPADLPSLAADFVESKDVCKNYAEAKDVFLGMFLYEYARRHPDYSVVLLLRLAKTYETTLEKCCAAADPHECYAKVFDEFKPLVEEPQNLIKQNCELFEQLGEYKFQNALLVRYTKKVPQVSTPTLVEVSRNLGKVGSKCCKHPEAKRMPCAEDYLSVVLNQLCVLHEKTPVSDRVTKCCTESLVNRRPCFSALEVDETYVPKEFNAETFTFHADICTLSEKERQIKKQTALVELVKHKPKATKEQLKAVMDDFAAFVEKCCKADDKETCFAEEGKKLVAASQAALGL

SMILES | Km (TAFI) | kcat (TAFI) | increase in relaxivity of the protein-bound form compared to the unbound contrast agent [1]
N=C(N)NCCC[C@H](NC(=O)CNC(=O)c1ccccc1)C(=O)O [hippuryl arginine] (Bz-Gly-Arg-OH) | 140 µM | 21 s⁻¹ | –
O=C([O-])CN(CCN(CC(=O)[O-])C[C@H](COP(=O)([O-])OC1CCC(c2ccccc2)(c2ccccc2)CC1)N(CC(=O)[O-])CC(=O)[O-])CC(=O)[O-].[Gd+3].[H+].[H+].[H+] [MS-325] | – | – | seven to eight times
